Test results published in ChEMBL document CHEMBL5325462, “Regioselective synthesis and in vitro cytotoxicity evaluation of 3-thiooxindole derivatives: Tubulin polymerization inhibition and apoptosis inducing studies” (Bioorg Med Chem, 2023).
Active and inactive are the calls of the source. The rule behind the calls is not given here.

Tests used:
[1] = test system: A549; test: Cytotoxicity against human A549 cells assessed as inhibition of cell growth measured after 72 hrs by MTT assay; format: functional, cell-based; conditions: A549, 72 h
[2] = test system: SK-MEL-28; test: Cytotoxicity against human SK-MEL-28 cells assessed as inhibition of cell growth measured after 72 hrs by MTT assay; format: functional, cell-based; conditions: SK-MEL-28, 72 h
[3] = test system: HCT-116; test: Cytotoxicity against human HCT-116 cells assessed as inhibition of cell growth measured after 72 hrs by MTT assay; format: functional, cell-based; conditions: HCT-116, 72 h
[4] = Cytotoxicity against rat NRK cells assessed as inhibition of cell growth measured after 72 hrs by MTT assay; format: toxicity, cell-based
[5] = test system: HCT-116; test: Induction of apoptosis in human HCT-116 cells assessed as reduction in cell viability at 3.32 to 13.28 uM measured after 48 hrs by phase contrast microscope; format: functional, cell-based; conditions: dose 3.32-13.28 µM
[6] = test system: HCT-116; test: Induction of morphological changes in human HCT-116 cells assessed as cell detachment at 3.32 to 13.28 uM measured after 48 hrs by phase contrast microscope; format: functional, cell-based; conditions: dose 3.32-13.28 µM
[7] = test system: HCT-116; test: Induction of nuclear morphological changes in human HCT-116 cells assessed as change in nuclear condensation measured after 48 hrs by DAPI-staining based fluorescence microscopic analysis; format: functional, cell-based
[8] = test system: HCT-116; test: Induction of nuclear morphological changes in human HCT-116 cells assessed as horseshoe shaped nuclei formation measured after 48 hrs by DAPI-staining based fluorescence microscopic analysis; format: functional, cell-based
[9] = test system: HCT-116; test: Induction of ROS production in human HCT-116 cells at 3.32 uM incubated for 72 hrs by DCFDA staining based fluorescence microscopic analysis; format: functional, cell-based
[10] = test system: HCT-116; test: Inhibition of cell invasion in human HCT-116 cells at 3.32 to 13.28 uM measured after 48 hrs by phase contrast microscopic analysis; format: functional, cell-based; conditions: dose 3.32-13.28 µM
[11] = test system: HCT-116; test: Inhibition of colony formation in human HCT-116 cells measured after 14 days; format: functional, cell-based; conditions: dose 3.32-13.28 µM, time 14.0 day
[12] = test system: Cell membrane; test: Induction of mitochondrial membrane potential loss in human HCT-116 cells assessed as polarized cells at 3.32 uM incubated for 72 hrs by JC-1 staining based flow cytometry analysis (reference value: 99.6 %); format: subcellular
[13] = test system: Cell membrane; test: Induction of mitochondrial membrane potential loss in human HCT-116 cells assessed as depolarized cells at 3.32 uM incubated for 72 hrs by JC-1 staining based flow cytometry analysis (reference value: 0.4 %); format: subcellular
[14] = test system: Cell membrane; test: Induction of mitochondrial membrane potential loss in human HCT-116 cells assessed as depolarized cells at 6.64 uM incubated for 72 hrs by JC-1 staining based flow cytometry analysis (reference value: 0.4 %); format: subcellular
[15] = test system: Cell membrane; test: Induction of mitochondrial membrane potential loss in human HCT-116 cells assessed as depolarized cells at 13.28 uM incubated for 72 hrs by JC-1 staining based flow cytometry analysis (reference value: 0.4 %); format: subcellular
[16] = test system: HCT-116; test: Induction of apoptosis in human HCT-116 cells assessed as viable cells at 3.32 uM incubated for 24 hrs by Annexin V-FITC/PI staining based flow cytometry analysis (Rvb= 99.7%); format: functional; conditions: read-out: Activity
[17] = test system: HCT-116; test: Induction of apoptosis in human HCT-116 cells assessed as viable cells at 6.64 uM incubated for 24 hrs by Annexin V-FITC/PI staining based flow cytometry analysis (Rvb= 99.7%); format: functional; conditions: read-out: Activity
[18] = test system: HCT-116; test: Induction of apoptosis in human HCT-116 cells assessed as early apoptotic cells at 3.32 uM incubated for 24 hrs by Annexin V-FITC/PI staining based flow cytometry analysis (Rvb= 0.2%); format: functional
[19] = test system: HCT-116; test: Induction of apoptosis in human HCT-116 cells assessed as early apoptotic cells at 6.64 uM incubated for 24 hrs by Annexin V-FITC/PI staining based flow cytometry analysis (Rvb= 0.2%); format: functional
[20] = test system: HCT-116; test: Induction of apoptosis in human HCT-116 cells assessed as early apoptotic cells at 13.28 uM incubated for 24 hrs by Annexin V-FITC/PI staining based flow cytometry analysis (Rvb= 0.2%); format: functional
[21] = test system: HCT-116; test: Induction of apoptosis in human HCT-116 cells assessed as late apoptotic cells at 3.32 uM incubated for 24 hrs by Annexin V-FITC/PI staining based flow cytometry analysis (Rvb= 0.1%); format: functional
[22] = test system: HCT-116; test: Induction of apoptosis in human HCT-116 cells assessed as late apoptotic cells at 6.64 uM incubated for 24 hrs by Annexin V-FITC/PI staining based flow cytometry analysis (Rvb= 0.1%); format: functional
[23] = test system: HCT-116; test: Induction of apoptosis in human HCT-116 cells assessed as necrotic cells at 3.32 uM incubated for 24 hrs by Annexin V-FITC/PI staining based flow cytometry analysis (Rvb= 0.0%); format: functional
[24] = test system: HCT-116; test: Induction of apoptosis in human HCT-116 cells assessed as necrotic cells at 13.28 uM incubated for 24 hrs by Annexin V-FITC/PI staining based flow cytometry analysis (Rvb= 0.0%); format: functional
[25] = test system: HCT-116; test: Cell cycle arrest in human HCT-116 cells assessed as accumulation of cells in sub-G1 phase at 6.64 uM measured after 48 hrs by PI staining based flow cytometry method (reference value: 4.6%); format: functional
[26] = test system: HCT-116; test: Cell cycle arrest in human HCT-116 cells assessed as accumulation of cells in sub-G1 phase at 13.28 uM measured after 48 hrs by PI staining based flow cytometry method (reference value: 4.6%); format: functional
[27] = test system: HCT-116; test: Cell cycle arrest in human HCT-116 cells assessed as accumulation of cells in G0/G1 phase at 3.32 uM measured after 48 hrs by PI staining based flow cytometry method (reference value: 79%); format: functional
[28] = test system: HCT-116; test: Cell cycle arrest in human HCT-116 cells assessed as accumulation of cells in G0/G1 phase at 13.28 uM measured after 48 hrs by PI staining based flow cytometry method (reference value: 79%); format: functional
[29] = test system: HCT-116; test: Cell cycle arrest in human HCT-116 cells assessed as accumulation of cells in S phase at 3.32 uM measured after 48 hrs by PI staining based flow cytometry method (reference value: 8.8%); format: functional
[30] = test system: HCT-116; test: Cell cycle arrest in human HCT-116 cells assessed as accumulation of cells in S phase at 6.64 uM measured after 48 hrs by PI staining based flow cytometry method (reference value: 8.8%); format: functional
[31] = test system: HCT-116; test: Cell cycle arrest in human HCT-116 cells assessed as accumulation of cells in S phase at 13.28 uM measured after 48 hrs by PI staining based flow cytometry method (reference value: 8.8%); format: functional
[32] = test system: HCT-116; test: Cell cycle arrest in human HCT-116 cells assessed as accumulation of cells in G2/M phase at 3.32 uM measured after 48 hrs by PI staining based flow cytometry method (reference value: 6.7%); format: functional
[33] = test system: HCT-116; test: Cell cycle arrest in human HCT-116 cells assessed as accumulation of cells in G2/M phase at 6.64 uM measured after 48 hrs by PI staining based flow cytometry method (reference value: 6.7%); format: functional
[34] = test system: HCT-116; test: Cell cycle arrest in human HCT-116 cells assessed as accumulation of cells in G2/M phase at 13.28 uM measured after 48 hrs by PI staining based flow cytometry method (reference value: 6.7%); format: functional
[35] = molecular target: Tubulin; test: Inhibition of tubulin polymerization (unknown origin) by absorbance based analysis; format: protein-complex assay, Homo sapiens

Work on `CC(C)(C)S(=O)(=O)NCC1(Sc2nc3ccccc3[nH]2)C(=O)N(Cc2ccc(Br)cc2)c2ccccc21` (stereo not given) yielded an IC50 [1] of 19.2 µM, an IC50 [2] of 15.3 µM and an IC50 [3] of 6.64 µM. The IC50 at 72 h [4] was 38.4 µM, the Activity [5] was “Active” and the Activity [6] was “Active”. The Activity [7] was “Dose-Dependent Effect”, the Activity [8] was “Dose-Dependent Effect” and the Activity [9] was “Active”. For the same molecule, the inhibition [10] was “Active”, the inhibition [11] was “Dose-Dependent Effect” and the Activity [12] was 97%. The Activity [13] was 3%, the Activity [14] was 5.9% and the Activity [15] was 13.3%. It also gave a viability at 3.32 µM [16] of 4.5%, a viability at 6.64 µM [17] of 9.9% and an Activity [18] of 41.8%. For the same molecule, the Activity [19] was 21.4%, the Activity [20] was 8.9% and the Activity [21] was 53.4%. It also gave an Activity [22] of 58.4%, an Activity [23] of 0.3% and an Activity [24] of 2.9%. The Activity [25] was 27.4%, the Activity [26] was 32.3% and the Activity [27] was 52%. It also gave an Activity [28] of 41%, an Activity [29] of 11.7% and an Activity [30] of 11.1%. The Activity [31] was 8.6%, the Activity [32] was 11.8% and the Activity [33] was 13.3%. It also gave an Activity [34] of 18.4% and an IC50 [35] of 9.73 µM.
